From patent US4112219A, “Acyl derivatives of antibiotic BM123γ” (American Cyanamid Company, priority 1977, dated 1978) come the findings set out here.

“And” between values parts separate entries of the source, which are not always exact repeats. Equal entries are not always repeated.

The test relates to Escherichia coli US311. As to the kind of experiment: in vivo activity against Escherichia coli US311 in mice (systemic lethal infection, single subcutaneous dose). Also noted: species or system Escherichia coli US311 in Carworth Farms CF-1 mice. An excerpt: The starting material for the acylation procedure has been defined hereinabove as antibiotic BM123γ having formula (IV). When R' is structure (II) in formula (IV), then the antibiotic is BM123γ1 and when R' is structure (III) in formula (IV), then the antibiotic is BM123γ2. […] The preparation and properties of trans-BM123γ1 and trans-BM123γ2 are disclosed in U.S. Pat. No. 4,007,167 whereas the preparation and properties of cis-BM123γ1 and cis-BM123γ2 are set forth in U.S. Pat. No. 4,018,972. The term cis-BM123γ refers to a mixture in any proportion of cis-BM123γ1 and cis-BM123γ2 whereas the term trans-BM123γ refers to a mixture in any proportion of trans-BM123γ1 and trans-BM123γ2. The expression antibiotic BM123γ refers to either cis-BM123γ or trans-BM123γ. […] These new substances show high in vivo antibacterial activity in mice against Escherichia coli US311 when administered by a single subcutaneous dose to groups of Carworth Farms CF-1 mice, weight about 20 grams, infected intraperitoneally with a lethal dose of this bacteria in a 10^-3 trypticase soy broth TSP dilution of a 5 hour TSP blood culture. In Table I below is set forth the in vivo activity of typical products of this invention (prepared by the procedure of Example 1 from the indicated activated ester which was prepared by the procedure of Example 2 or Example 3) against Escherichia coli US311 in mice. The activity is expressed in terms of the ED50 or the dose in mg./kg. of body weight required to protect 50% of the mice against E. coli. The derivative name in Table I indicates whether cis-BM123 or trans-BM123 was employed as starting material.

Where [1] appears, read: infected intraperitoneally with lethal dose of E. coli US311.

In the case of p-Acetaminobenzoyl-trans-BM123γ, under setting [1], the “ED50 (dose required to protect 50% of the mice against E. coli)” value is given as 2.0 mg./kg. of Body Weight.
On to Trimethylacetyl-trans-BM123γ, for which the “ED50 (dose required to protect 50% of the mice against E. coli)” value under setting [1] is 1.0 mg./kg. of Body Weight.
Take o-Methylbenzoyl-trans-BM123γ: the “ED50 (dose required to protect 50% of the mice against E. coli)” value under setting [1] is 2.0 mg./kg. of Body Weight and 1.0 mg./kg. of Body Weight.
With “4-(p-Chlorophenylsulfonyl)-benzoyl-trans-BM123γ”, under setting [1], the “ED50 (dose required to protect 50% of the mice against E. coli)” value is listed as 2.0 mg./kg. of Body Weight.
On the same count and under the same terms, next, 2,3,6-Trichlorobenzoyl-trans-BM123γ: 2.0 mg./kg. of Body Weight; 2-Methylpropionyl-trans-BM123γ: 2.0 mg./kg. of Body Weight; 3-Methoxy-2-naphthoyl-trans-BM123γ: 2.0 mg./kg. of Body Weight.
For m-Hydroxybenzoyl-trans-BM123γ, under setting [1], the “ED50 (dose required to protect 50% of the mice against E. coli)” value is given as 1.5 mg./kg. of Body Weight.
In the case of p-Dimethylaminobenzoyl-trans-BM123γ, the “ED50 (dose required to protect 50% of the mice against E. coli)” value under setting [1] was 2.0 mg./kg. of Body Weight.
For the substance p-Cyanobenzoyl-trans-BM123γ, under setting [1], the “ED50 (dose required to protect 50% of the mice against E. coli)” value is recorded as 4.0 mg./kg. of Body Weight.
Turning to p-Biphenylcarbonyl-trans-BM123γ, under setting [1], the “ED50 (dose required to protect 50% of the mice against E. coli)” value is listed as 2.0 mg./kg. of Body Weight.
Regarding 3,4,5-Trimethoxybenzoyl-trans-BM123γ, under setting [1], the “ED50 (dose required to protect 50% of the mice against E. coli)” value is 2.0 mg./kg. of Body Weight.
Regarding 4-Fluoro-1-naphthoyl-trans-BM123γ, the “ED50 (dose required to protect 50% of the mice against E. coli)” value under setting [1] was 1.0 mg./kg. of Body Weight.
On to p-Methylthiobenzoyl-trans-BM123γ, for which the “ED50 (dose required to protect 50% of the mice against E. coli)” value under setting [1] is 4.0 mg./kg. of Body Weight.
As for Pentafluorobenzoyl-trans-BM123γ, the “ED50 (dose required to protect 50% of the mice against E. coli)” value under setting [1] is 0.5 mg./kg. of Body Weight.
Turning to “4-Oxy-4H-thiapyran-3-yl-carbonyl-trans-BM123γ”, the “ED50 (dose required to protect 50% of the mice against E. coli)” value under setting [1] is reported as 2.0 mg./kg. of Body Weight.
Still for that read-out and setting: next, o-Fluorobenzoyl-trans-BM123γ: 1.0 mg./kg. of Body Weight; 8-Bromo-1-napthoyl-trans-BM123γ: 1.5 mg./kg. of Body Weight; 1,4-Thiapyran(2)carbonyl-trans-BM123γ: 2.0 mg./kg. of Body Weight.
On the same count and under the same terms, next, Cyclopropylcarbonyl-trans-BM123γ: 2.0 mg./kg. of Body Weight.
With m-Bromobenzoyl-trans-BM123γ, the “ED50 (dose required to protect 50% of the mice against E. coli)” value under setting [1] is on record as 0.75 mg./kg. of Body Weight.
The same measure, in the same setting: next, o-Hydroxybenzoyl-trans-BM123γ: 8.0 mg./kg. of Body Weight; “Pyridine-n-oxide-2-carbonyl-trans-BM123γ”: 2.0 mg./kg. of Body Weight.
On to 2-Thienyl-trans-BM123γ, for which, under setting [1], the “ED50 (dose required to protect 50% of the mice against E. coli)” value is on record as 1.0 mg./kg. of Body Weight.
For the substance α-Bromopropionyl-trans-BM123γ, the “ED50 (dose required to protect 50% of the mice against E. coli)” value under setting [1] is on record as 2.0 mg./kg. of Body Weight.
On the same count and under the same terms, for “4-Ethyl-2,3-diketopiperazine-1-carbonyl-trans-BM123γ” the value was 2.0 mg./kg. of Body Weight; for 2-Furyl-trans-BM123γ, 1.0 mg./kg. of Body Weight.
For the substance p-Trifluoromethylbenzoyl-trans-BM123γ, the “ED50 (dose required to protect 50% of the mice against E. coli)” value under setting [1] is recorded as 4.0 mg./kg. of Body Weight.
For the substance p-Chlorobenzoyl-trans-BM123γ, the “ED50 (dose required to protect 50% of the mice against E. coli)” value under setting [1] was 4.0 mg./kg. of Body Weight.
Regarding Carbethoxyformyl-trans-BM123γ, the “ED50 (dose required to protect 50% of the mice against E. coli)” value under setting [1] was 1.0 mg./kg. of Body Weight.
Same read-out and setting: next, 3,4-Dimethylbenzoyl-trans-BM123γ: 2.0 mg./kg. of Body Weight.
For o-Mercaptobenzoyl-trans-MB123γ, the “ED50 (dose required to protect 50% of the mice against E. coli)” value under setting [1] is reported as 2.0 mg./kg. of Body Weight.
In the case of Pentachlorobenzoyl-trans-BM123γ, the “ED50 (dose required to protect 50% of the mice against E. coli)” value under setting [1] is 2.0 mg./kg. of Body Weight.
As for 2-Napthyloxyacetyl-trans-BM123γ, under setting [1], the “ED50 (dose required to protect 50% of the mice against E. coli)” value is 0.5 mg./kg. of Body Weight.
Regarding “4-Carbethoxy-3,5-dimethoxybenzoyl-trans-BM123γ”, the “ED50 (dose required to protect 50% of the mice against E. coli)” value under setting [1] is on record as 2.0 mg./kg. of Body Weight.
With p-Hydroxybenzoyl-trans-BM123γ, under setting [1], the “ED50 (dose required to protect 50% of the mice against E. coli)” value is listed as 2.0 mg./kg. of Body Weight.
With 3,5-Dinitrobenzoyl-trans-BM123γ, the “ED50 (dose required to protect 50% of the mice against E. coli)” value under setting [1] is reported as 1.0 mg./kg. of Body Weight.
For the substance o-Benzylbenzoyl-trans-BM123γ, the “ED50 (dose required to protect 50% of the mice against E. coli)” value under setting [1] is on record as 2.0 mg./kg. of Body Weight.
The same measure, in the same setting: for p-Trifluoromethoxybenzoyl:trans-BM123γ the value was 1.0 mg./kg. of Body Weight; for Chlorodiphenylacetyl-trans-BM123γ, 2.0 mg./kg. of Body Weight.
With 3,4-Dichlorobenzoyl-trans-BM123γ, the “ED50 (dose required to protect 50% of the mice against E. coli)” value under setting [1] was 0.5 mg./kg. of Body Weight and 1.0 mg./kg. of Body Weight.
Take p-Fluorobenzoyl-trans-BM123γ: under setting [1], the “ED50 (dose required to protect 50% of the mice against E. coli)” value is on record as 1.0 mg./kg. of Body Weight.
3,5-Dichlorobenzoyl-trans-BM123γ: under setting [1], the “ED50 (dose required to protect 50% of the mice against E. coli)” value is reported as 0.5 mg./kg. of Body Weight.
2,5-Dibromobenzoyl-trans-BM123γ: under setting [1], the “ED50 (dose required to protect 50% of the mice against E. coli)” value is recorded as 2.0 mg./kg. of Body Weight.
p-Ethoxybenzoyl-trans-BM123γ: under setting [1], the “ED50 (dose required to protect 50% of the mice against E. coli)” value was 2.0 mg./kg. of Body Weight.
On the same count and under the same terms, next, 2,6-Dimethoxybenzoyl-trans-BM123γ: 2.0 mg./kg. of Body Weight; Methoxyacetyl-trans-BM123γ: 2.0 mg./kg. of Body Weight; p-Acetylbenzoyl-trans-BM123γ: 2.0 mg./kg. of Body Weight.
Still for that read-out and setting: next, 1-Naphthoyl-trans-BM123γ: 0.5 mg./kg. of Body Weight; Phenoxyacetyl-trans-BM123γ: 1.0 mg./kg. of Body Weight.
On to p-Formylbenzoyl-trans-BM123γ, for which, under setting [1], the “ED50 (dose required to protect 50% of the mice against E. coli)” value is 2.0 mg./kg. of Body Weight.
Consider α-Phenoxypropionyl-trans-BM123γ, for which the “ED50 (dose required to protect 50% of the mice against E. coli)” value under setting [1] was 2.0 mg./kg. of Body Weight and 1.0 mg./kg. of Body Weight; the “ED50 (dose required to protect 50% of the mice against E. coli)” value (infected intraperitoneally with lethal dose of E. coli US311, listed as α-Phenyoxypropionyl-trans-BM123γ) is 2.0 mg./kg. of Body Weight.
Regarding m-Methylbenzoyl-trans-BM123γ, under setting [1], the “ED50 (dose required to protect 50% of the mice against E. coli)” value is given as 1.0 mg./kg. of Body Weight.
On to m-Fluorobenzoyl-trans-BM123γ, for which the “ED50 (dose required to protect 50% of the mice against E. coli)” value under setting [1] is 1.0 mg./kg. of Body Weight.
Regarding 2,4-Dichlorobenzoyl-trans-BM123γ, under setting [1], the “ED50 (dose required to protect 50% of the mice against E. coli)” value was 0.5 mg./kg. of Body Weight and 1.0 mg./kg. of Body Weight.
For the substance Trichloroacetyl-trans-BM123γ, under setting [1], the “ED50 (dose required to protect 50% of the mice against E. coli)” value is listed as 1.0 mg./kg. of Body Weight.
For Benzoyl-trans-BM123γ, under setting [1], the “ED50 (dose required to protect 50% of the mice against E. coli)” value is reported as 4.0 mg./kg. of Body Weight.
Take o-Benzoylbenzoyl-trans-BM123γ: under setting [1], the “ED50 (dose required to protect 50% of the mice against E. coli)” value is on record as 2.0 mg./kg. of Body Weight.
Same read-out and setting: next, p-Nitrobenzoyl-trans-BM123γ: 0.5 mg./kg. of Body Weight; p-Sulfamylbenzoyl-trans-BM123γ: 0.5 mg./kg. of Body Weight; Decanoyl-trans-BM123γ: 2.0 mg./kg. of Body Weight.
On to o-Acetoxybenzoyl-trans-BM123γ, for which the “ED50 (dose required to protect 50% of the mice against E. coli)” value under setting [1] was 2.0 mg./kg. of Body Weight.
For m-Phenoxybenzoyl-trans-BM123γ, the “ED50 (dose required to protect 50% of the mice against E. coli)” value under setting [1] is on record as 1.5 mg./kg. of Body Weight.
For the substance Propionyl-trans-BM123γ, the “ED50 (dose required to protect 50% of the mice against E. coli)” value under setting [1] is listed as 4.0 mg./kg. of Body Weight.
The same measure, in the same setting: next, p-t-Butylbenzoyl-trans-BM123γ: 4.0 mg./kg. of Body Weight.
As to Cinnamoyl-trans-BM123γ, the “ED50 (dose required to protect 50% of the mice against E. coli)” value under setting [1] is recorded as 2.0 mg./kg. of Body Weight.
In the case of m-Mercaptobenzoyl-trans-BM123γ, the “ED50 (dose required to protect 50% of the mice against E. coli)” value under setting [1] is on record as 2.0 mg./kg. of Body Weight.
Regarding p-Methoxybenzoyl-trans-BM123γ, the “ED50 (dose required to protect 50% of the mice against E. coli)” value under setting [1] is reported as 1.0 mg./kg. of Body Weight.
